Article PMC10530836, “Synthesis, Molecular Docking, and Biological Evaluation of Novel Anthranilic Acid Hybrid and Its Diamides as Antispasmodics” (International Journal of Molecular Sciences, 2023)

Columns and labels:
Experiment in all cases: Antimicrobial activity, agar well diffusion
Assay type in all cases: cell-based
Conditions in all cases: Dose 0.6 mg/disk, dwell = 6 mm
[1] = system: Fusarium moniliforme ATCC 38932
Excerpt: (§1) Twenty tested microorganisms including six Gram-positive bacteria (Bacillus subtilis ATCC 6633, Bacillus amyloliquefaciens 4BCL-YT, Staphylococcus aureus ATCC 25923, Listeria monocytogenes NBIMCC 8632, Enterococcus faecalis ATCC 19433), six Gram-negative bacteria (Salmonella enteritidis ATCC 13076, Klebsiella sp.—clinical isolate, Escherichia coli ATCC 25922, Proteus vulgaris ATCC 6380, Pseudomonas aeruginosa ATCC 9027), two yeasts (Candida albicans NBIMCC 74, Saccharomyces cerevisiae ATCC 9763), and six fungi (Aspergillus niger ATCC 1015, Aspergillus flavus, Penicillium sp., Rhizopus sp., Mucor sp.—plant isolates, Fusarium moniliforme ATCC 38932) from the collection of the Department of Microbiology at the University of Food Technologies—Plovdiv, Bulgaria, were selected for the antimicrobial activity test. The antimicrobial activity of the samples was determined by the agar well diffusion method. The tested bacteria B. subtilis and B. amyloliquefaciens were cultured on LBG agar at 30 °C. The test bacteria S. aureus, L. monocytogenes, E. faecalis, S. enteritidis, Klebsiella sp., E. coli, P. vulgaris, and P. aeruginosa were cultured on LBG agar at 37 °C for 24 h. The yeast C. albicans was cultured on MEA at 37 °C, while S. cerevisiae was cultured on MEA at 30 °C for 24 h. The fungi A. niger, A. flavus, Penicillium sp., Rhizopus sp., Mucor sp., and F. moniliforme were grown on MEA at 30 °C for 7 days or until sporulation. The inocula of the tested bacteria/yeasts was prepared by homogenization of a small amount of biomass in 5 mL of sterile 0.5% NaCl. The inocula of tested fungi were prepared by the addition of 5 mL of sterile 0.5% NaCl into the tubes. After stirring by vortex V-1 plus (Biosan), they were filtered and replaced in other tubes before use. The number of viable cells and fungal spores was determined using a bacterial counting chamber Thoma (Poly-Optik, GmbH, Bad Blankenburg, Germany). Their final concentrations were adjusted to 10^8 cfu/mL for bacterial/yeast cells and 10^5 cfu/mL for fungal spores and then inoculated in preliminarily melted and tempered at 45–48 °C LBG/MEA agar media. Next, the inoculated media were transferred in a quantity of 18 mL in sterile Petri plates (d = 90 mm) (Gosselin™, Hazebrouck, France) and allowed to harden. Then, six wells (d = 6 mm) per plate were cut, and triplicates of 60 μL of each extract were pipetted into the agar wells. The Petri plates were incubated in identical conditions. The antimicrobial activity was determined by measuring the diameter of the inhibition zones around the wells on the 24th and 48th h of incubation. Tested microorganisms with inhibition zones of 18 mm or more were considered sensitive; moderately sensitive were those in which the zones were from 12 to 18 mm; resistant were those in which the inhibition zones were up to 12 mm or completely missing.

Mucor sp. = system: Mucor sp.
Excerpt: as §1

[2] = system: Saccharomyces cerevisiae ATCC 9763
Excerpt: as §1

[3] = system: Candida albicans NBIMCC 74
Excerpt: as §1

Measured: Inhibition Zones

Nc1ccccc1C(=O)NCCc1cccc(Cl)c1 [Compound 3, 2-amino-N-(3-chlorophenethyl)benzamide]
15 mm: all assays above
